Data taken from article PMC9653409, “Generative deep learning enables the discovery of a potent and selective RIPK1 inhibitor” (Nature Communications, 2022).

Experiments:
Test in all cases: Kinase inhibitory activity profiling of RI-962@10 µM (406 kinases, Eurofins)
Assay type in all cases: biochemical
[1] = molecular target: panel of human kinases (kinase named in endpoint) (Homo sapiens, UniProt O00443); conditions: 10 µM; read-out: Activity (%), PI3KC2a(h)
In short: (§1)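 Radiometric filter-binding kinase assays: enzyme preincubated 15 min with compound in 8 mM MOPS pH 7.0, 0.2 mM EDTA, 250 μM peptide substrate, 10 mM magnesium acetate, 10 μM [γ-33P]-ATP. Reaction started with Mg/ATP, run 40 min at room temperature, stopped with phosphoric acid; 33P incorporation read by scintillation counting. Other kinases by similar protocols.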

[2] = molecular target: panel of human kinases (kinase named in endpoint) (Homo sapiens, UniProt O15111); conditions: 10 µM; read-out: Activity (%), IKKα(h)
In short: as §1

[3] = molecular target: panel of human kinases (kinase named in endpoint) (Homo sapiens, UniProt P00519, H396P); conditions: 10 µM; read-out: Activity (%), Abl (H396P) (h)
In short: as §1

[4] = molecular target: panel of human kinases (kinase named in endpoint) (Homo sapiens, UniProt P00533, T790M); conditions: 10 µM; read-out: Activity (%), EGFR(T790M)(h)
In short: as §1

[5] = molecular target: panel of human kinases (kinase named in endpoint) (Homo sapiens, UniProt P05771); conditions: 10 µM; read-out: Activity (%), PKCβI(h)
In short: as §1

[6] = molecular target: panel of human kinases (kinase named in endpoint) (Homo sapiens, UniProt P07333); conditions: 10 µM; read-out: Activity (%), Fms(h)
In short: as §1

[7] = molecular target: panel of human kinases (kinase named in endpoint) (Homo sapiens, UniProt P08922); conditions: 10 µM; read-out: Activity (%), Ros(h)
In short: as §1

[8] = molecular target: panel of human kinases (kinase named in endpoint) (Homo sapiens, UniProt P21802, N549H); conditions: 10 µM; read-out: Activity (%), FGFR2(N549H)(h)
In short: as §1

[9] = molecular target: panel of human kinases (kinase named in endpoint) (Homo sapiens, UniProt P35968); conditions: 10 µM; read-out: Activity (%), KDR(h)
In short: as §1

[10] = molecular target: panel of human kinases (kinase named in endpoint) (Homo sapiens, UniProt P37023); conditions: 10 µM; read-out: Activity (%), ALK1(h)
In short: as §1

[11] = molecular target: panel of human kinases (kinase named in endpoint) (Homo sapiens, UniProt P57059); conditions: 10 µM; read-out: Activity (%), SIK(h)
In short: as §1

[12] = molecular target: panel of human kinases (kinase named in endpoint) (Homo sapiens, UniProt Q06187, R28H); conditions: 10 µM; read-out: Activity (%), BTK(R28H)(h)
In short: as §1

[13] = molecular target: panel of human kinases (kinase named in endpoint) (Homo sapiens, UniProt Q13554); conditions: 10 µM; read-out: Activity (%), CaMKIIβ(h)
In short: as §1

[14] = molecular target: panel of human kinases (kinase named in endpoint) (Homo sapiens, UniProt Q13976); conditions: 10 µM; read-out: Activity (%), PKG1α(h)
In short: as §1

[15] = molecular target: panel of human kinases (kinase named in endpoint) (Homo sapiens, UniProt Q15418); conditions: 10 µM; read-out: Activity (%), Rsk1(h)
In short: as §1

[16] = molecular target: panel of human kinases (kinase named in endpoint) (Homo sapiens, UniProt Q16654); conditions: 10 µM; read-out: Activity (%), PDHK4(h)
In short: as §1

[17] = molecular target: panel of human kinases (kinase named in endpoint) (Homo sapiens, UniProt Q7KZI7); conditions: 10 µM; read-out: Activity (%), PAR-1Bα(h)
In short: as §1

[18] = molecular target: panel of human kinases (kinase named in endpoint) (Homo sapiens, UniProt Q8IVH8); conditions: 10 µM; read-out: Activity (%), MAP4K3(h)
In short: as §1

[19] = molecular target: panel of human kinases (kinase named in endpoint) (Homo sapiens, UniProt Q9C098); conditions: 10 µM; read-out: Activity (%), DCAMKL3(h)
In short: as §1

[20] = molecular target: panel of human kinases (kinase named in endpoint) (Homo sapiens, UniProt Q9H1R3); conditions: 10 µM; read-out: Activity (%), MYLK2(h)
In short: as §1

[21] = molecular target: panel of human kinases (kinase named in endpoint) (Homo sapiens, UniProt Q9H4B4); conditions: 10 µM; read-out: Activity (%), Plk3(h)
In short: as §1

[22] = molecular target: panel of human kinases (kinase named in endpoint) (Homo sapiens, UniProt Q9NRH2); conditions: 10 µM; read-out: Activity (%), SNRK(h)
In short: as §1

[23] = molecular target: panel of human kinases (kinase named in endpoint) (Homo sapiens, UniProt Q9P1W9); conditions: 10 µM; read-out: Activity (%), Pim-2(h)
In short: as §1

[24] = molecular target: panel of human kinases (kinase named in endpoint) (Homo sapiens, UniProt Q9UHD2); conditions: 10 µM; read-out: Activity (%), TBK1(h)
In short: as §1

[25] = molecular target: panel of human kinases (kinase named in endpoint) (Homo sapiens, UniProt Q9UKI8); conditions: 10 µM; read-out: Activity (%), TLK1(h)
In short: as §1

Sequence of panel of human kinases (kinase named in endpoint) (Homo sapiens, UniProt P35968) (P35968 20-1356): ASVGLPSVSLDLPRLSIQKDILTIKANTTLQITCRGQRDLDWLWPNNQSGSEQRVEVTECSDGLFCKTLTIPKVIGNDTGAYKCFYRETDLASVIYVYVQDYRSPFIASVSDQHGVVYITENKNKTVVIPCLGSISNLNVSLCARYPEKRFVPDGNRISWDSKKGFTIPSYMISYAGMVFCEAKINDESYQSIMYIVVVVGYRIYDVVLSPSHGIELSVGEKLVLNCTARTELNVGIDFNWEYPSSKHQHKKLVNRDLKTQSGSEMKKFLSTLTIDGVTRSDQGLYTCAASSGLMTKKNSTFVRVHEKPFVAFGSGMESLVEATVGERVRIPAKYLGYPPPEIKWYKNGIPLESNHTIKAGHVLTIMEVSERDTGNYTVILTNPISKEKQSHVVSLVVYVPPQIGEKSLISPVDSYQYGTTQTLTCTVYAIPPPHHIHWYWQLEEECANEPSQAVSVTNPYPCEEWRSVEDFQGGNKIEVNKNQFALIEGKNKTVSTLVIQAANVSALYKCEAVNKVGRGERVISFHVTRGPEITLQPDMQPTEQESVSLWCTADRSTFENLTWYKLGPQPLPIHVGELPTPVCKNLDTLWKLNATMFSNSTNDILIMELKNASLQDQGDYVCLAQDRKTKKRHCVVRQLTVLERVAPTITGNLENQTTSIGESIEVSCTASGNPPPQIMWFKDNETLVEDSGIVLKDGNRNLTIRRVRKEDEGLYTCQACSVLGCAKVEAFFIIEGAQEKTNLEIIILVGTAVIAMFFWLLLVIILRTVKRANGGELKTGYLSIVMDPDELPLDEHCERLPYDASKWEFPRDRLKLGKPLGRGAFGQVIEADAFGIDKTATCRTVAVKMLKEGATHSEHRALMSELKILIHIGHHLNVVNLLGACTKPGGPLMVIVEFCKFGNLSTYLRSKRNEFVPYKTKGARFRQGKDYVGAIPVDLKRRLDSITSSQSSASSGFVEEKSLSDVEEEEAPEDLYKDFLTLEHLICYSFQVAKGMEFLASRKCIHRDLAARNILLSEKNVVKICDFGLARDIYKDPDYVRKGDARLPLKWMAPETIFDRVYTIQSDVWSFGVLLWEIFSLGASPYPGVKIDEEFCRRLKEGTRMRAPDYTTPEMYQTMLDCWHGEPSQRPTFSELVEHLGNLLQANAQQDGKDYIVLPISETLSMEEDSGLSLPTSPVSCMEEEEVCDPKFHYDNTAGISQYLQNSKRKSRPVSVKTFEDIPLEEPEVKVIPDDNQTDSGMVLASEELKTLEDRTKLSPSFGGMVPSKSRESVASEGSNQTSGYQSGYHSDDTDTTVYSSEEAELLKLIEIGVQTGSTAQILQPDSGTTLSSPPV
Sequence of panel of human kinases (kinase named in endpoint) (Homo sapiens, UniProt Q9C098) (Q9C098 whole entry): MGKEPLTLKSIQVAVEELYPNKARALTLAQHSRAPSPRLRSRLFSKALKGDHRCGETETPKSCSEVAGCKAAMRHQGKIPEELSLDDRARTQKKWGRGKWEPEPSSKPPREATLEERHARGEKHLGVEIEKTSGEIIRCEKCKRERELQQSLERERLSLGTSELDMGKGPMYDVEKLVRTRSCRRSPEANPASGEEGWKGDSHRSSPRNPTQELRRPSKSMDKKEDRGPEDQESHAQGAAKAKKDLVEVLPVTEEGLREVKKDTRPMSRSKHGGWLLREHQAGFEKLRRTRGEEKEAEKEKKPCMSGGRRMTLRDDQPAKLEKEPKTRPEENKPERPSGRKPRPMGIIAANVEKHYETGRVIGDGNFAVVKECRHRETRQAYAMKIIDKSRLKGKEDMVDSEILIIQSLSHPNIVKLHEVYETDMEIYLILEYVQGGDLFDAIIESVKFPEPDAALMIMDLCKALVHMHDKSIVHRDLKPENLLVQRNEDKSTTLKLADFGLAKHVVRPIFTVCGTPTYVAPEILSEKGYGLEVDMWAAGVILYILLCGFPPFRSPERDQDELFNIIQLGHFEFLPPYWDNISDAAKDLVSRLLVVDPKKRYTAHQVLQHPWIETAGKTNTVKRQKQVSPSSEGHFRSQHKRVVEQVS
Sequence of panel of human kinases (kinase named in endpoint) (Homo sapiens, UniProt O00443) (O00443 whole entry): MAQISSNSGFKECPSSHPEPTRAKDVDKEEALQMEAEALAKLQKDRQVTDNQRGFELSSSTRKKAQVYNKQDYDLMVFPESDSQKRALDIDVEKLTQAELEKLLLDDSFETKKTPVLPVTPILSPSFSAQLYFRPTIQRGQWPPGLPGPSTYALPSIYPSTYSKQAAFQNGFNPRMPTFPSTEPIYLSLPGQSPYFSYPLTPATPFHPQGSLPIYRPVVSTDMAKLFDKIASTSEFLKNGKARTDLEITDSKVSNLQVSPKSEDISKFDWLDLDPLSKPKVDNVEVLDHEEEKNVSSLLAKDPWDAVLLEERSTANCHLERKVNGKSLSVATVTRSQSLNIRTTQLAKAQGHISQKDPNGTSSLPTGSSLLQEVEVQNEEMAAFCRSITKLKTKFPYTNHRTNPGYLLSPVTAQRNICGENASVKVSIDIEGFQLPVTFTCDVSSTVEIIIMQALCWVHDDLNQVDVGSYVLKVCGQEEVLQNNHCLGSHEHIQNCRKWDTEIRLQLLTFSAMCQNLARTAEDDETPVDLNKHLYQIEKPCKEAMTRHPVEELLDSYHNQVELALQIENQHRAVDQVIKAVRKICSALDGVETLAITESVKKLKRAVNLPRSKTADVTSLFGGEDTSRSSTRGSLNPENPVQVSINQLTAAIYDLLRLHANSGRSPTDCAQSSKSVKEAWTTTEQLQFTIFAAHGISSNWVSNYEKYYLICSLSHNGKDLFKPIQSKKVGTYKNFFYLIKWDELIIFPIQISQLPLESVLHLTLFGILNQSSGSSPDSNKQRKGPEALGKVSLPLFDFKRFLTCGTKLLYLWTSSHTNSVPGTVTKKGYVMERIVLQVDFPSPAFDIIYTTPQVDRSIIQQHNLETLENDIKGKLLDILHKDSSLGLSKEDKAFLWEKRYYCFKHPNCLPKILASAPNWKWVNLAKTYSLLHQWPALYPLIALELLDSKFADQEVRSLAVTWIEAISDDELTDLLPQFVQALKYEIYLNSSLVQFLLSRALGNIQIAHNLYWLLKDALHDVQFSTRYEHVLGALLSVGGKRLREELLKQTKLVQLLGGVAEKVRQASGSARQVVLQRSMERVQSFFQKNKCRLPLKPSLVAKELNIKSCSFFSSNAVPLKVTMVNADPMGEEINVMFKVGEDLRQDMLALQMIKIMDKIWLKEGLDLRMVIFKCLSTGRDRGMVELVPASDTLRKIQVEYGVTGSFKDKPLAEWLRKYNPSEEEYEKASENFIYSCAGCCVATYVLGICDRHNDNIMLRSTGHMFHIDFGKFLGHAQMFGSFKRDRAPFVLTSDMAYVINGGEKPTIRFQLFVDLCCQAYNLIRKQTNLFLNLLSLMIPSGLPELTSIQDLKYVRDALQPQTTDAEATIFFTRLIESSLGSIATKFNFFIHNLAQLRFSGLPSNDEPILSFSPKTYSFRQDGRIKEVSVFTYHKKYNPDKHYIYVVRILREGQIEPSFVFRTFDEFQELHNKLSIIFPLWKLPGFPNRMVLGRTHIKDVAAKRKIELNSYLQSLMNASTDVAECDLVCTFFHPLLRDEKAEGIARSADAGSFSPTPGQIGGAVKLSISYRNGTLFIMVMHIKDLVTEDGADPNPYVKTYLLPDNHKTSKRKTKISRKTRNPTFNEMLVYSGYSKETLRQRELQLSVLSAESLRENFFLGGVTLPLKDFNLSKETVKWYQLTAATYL
Sequence of panel of human kinases (kinase named in endpoint) (Homo sapiens, UniProt Q8IVH8) (Q8IVH8 whole entry): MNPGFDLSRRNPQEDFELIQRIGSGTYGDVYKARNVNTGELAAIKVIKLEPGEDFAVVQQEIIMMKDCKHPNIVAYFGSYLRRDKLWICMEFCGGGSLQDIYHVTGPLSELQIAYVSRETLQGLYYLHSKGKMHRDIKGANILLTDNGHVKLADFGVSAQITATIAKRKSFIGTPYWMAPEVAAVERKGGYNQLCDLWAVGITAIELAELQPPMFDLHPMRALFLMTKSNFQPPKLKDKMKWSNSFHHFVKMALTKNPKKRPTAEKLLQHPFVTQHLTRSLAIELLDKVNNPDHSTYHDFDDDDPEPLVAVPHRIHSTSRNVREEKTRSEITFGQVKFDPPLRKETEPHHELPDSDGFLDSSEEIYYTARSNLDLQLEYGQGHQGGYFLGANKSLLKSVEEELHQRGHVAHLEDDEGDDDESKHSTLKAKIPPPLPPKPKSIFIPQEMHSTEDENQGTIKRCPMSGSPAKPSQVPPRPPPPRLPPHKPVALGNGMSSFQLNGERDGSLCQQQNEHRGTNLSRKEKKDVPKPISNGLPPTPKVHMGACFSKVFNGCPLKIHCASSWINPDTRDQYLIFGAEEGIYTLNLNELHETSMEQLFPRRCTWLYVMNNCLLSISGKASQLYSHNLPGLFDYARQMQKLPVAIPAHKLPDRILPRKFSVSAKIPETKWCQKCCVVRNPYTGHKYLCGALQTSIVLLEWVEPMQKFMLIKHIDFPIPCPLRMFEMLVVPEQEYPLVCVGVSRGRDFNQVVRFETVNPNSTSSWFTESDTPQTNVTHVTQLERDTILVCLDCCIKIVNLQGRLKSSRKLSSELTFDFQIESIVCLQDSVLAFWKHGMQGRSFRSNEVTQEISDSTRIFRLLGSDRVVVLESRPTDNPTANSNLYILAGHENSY
Sequence of panel of human kinases (kinase named in endpoint) (Homo sapiens, UniProt P37023) (P37023 22-503): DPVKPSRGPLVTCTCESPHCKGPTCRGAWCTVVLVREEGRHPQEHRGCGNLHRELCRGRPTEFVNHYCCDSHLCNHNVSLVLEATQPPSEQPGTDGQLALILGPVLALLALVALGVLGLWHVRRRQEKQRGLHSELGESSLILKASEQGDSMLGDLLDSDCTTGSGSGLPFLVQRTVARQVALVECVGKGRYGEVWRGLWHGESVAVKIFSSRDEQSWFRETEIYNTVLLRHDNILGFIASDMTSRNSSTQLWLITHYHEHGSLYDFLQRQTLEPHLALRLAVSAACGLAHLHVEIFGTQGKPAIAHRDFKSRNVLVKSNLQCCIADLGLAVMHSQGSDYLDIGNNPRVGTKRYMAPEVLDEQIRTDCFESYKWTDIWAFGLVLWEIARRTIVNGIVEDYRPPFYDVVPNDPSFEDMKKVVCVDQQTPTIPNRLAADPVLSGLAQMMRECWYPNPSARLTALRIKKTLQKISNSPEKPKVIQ

With `CC(C)C(=O)Nc1nc2cc(-c3ccc4c(c3)c(C(=O)NC(C)c3ccccc3)cn4C)ccn2n1` (stereo not shown) [RI-962] the activity at 10 µM [1] was 102%, the activity at 10 µM [2] was 101% and the activity at 10 µM [3] was 110%. For the same molecule, the activity at 10 µM [4] was 119%, the activity at 10 µM [5] was 120% and the activity at 10 µM [6] was 111%. It also gave an activity at 10 µM [7] of 106%, an activity at 10 µM [8] of 100% and an activity at 10 µM [9] of 92%. It also gave an activity at 10 µM [10] of 94%, an activity at 10 µM [11] of 137% and an activity at 10 µM [12] of 105%. The activity at 10 µM [13] was 109%, the activity at 10 µM [14] was 101% and the activity at 10 µM [15] was 120%. For the same molecule, the activity at 10 µM [16] was 75%, the activity at 10 µM [17] was 103% and the activity at 10 µM [18] was 85%. For the same molecule, the activity at 10 µM [19] was 100%, the activity at 10 µM [20] was 86% and the activity at 10 µM [21] was 88%. For the same molecule, the activity at 10 µM [22] was 121%, the activity at 10 µM [23] was 97% and the activity at 10 µM [24] was 90%. It also gave an activity at 10 µM [25] of 69%.
